Results reported in patent publication US7960568B2, “Heterocyclyl-substituted sulfonamides for the treatment of cognitive or food ingestion related disorders” (Laboratorios Del Dr. Esteve, S.A., priority 2007, dated 2011).
Several values for one entry are separate records, joined by “and”; a condition that tells them apart may be missing. Identical values can stand only once.

Molecular target: T1, 5HT6 human recombinant receptor (Homo sapiens, UniProt P50406)
T1 construct: purchased Receptor Biology; host or cells: HEK-293 cell membranes
T1 sequence (P50406 whole entry): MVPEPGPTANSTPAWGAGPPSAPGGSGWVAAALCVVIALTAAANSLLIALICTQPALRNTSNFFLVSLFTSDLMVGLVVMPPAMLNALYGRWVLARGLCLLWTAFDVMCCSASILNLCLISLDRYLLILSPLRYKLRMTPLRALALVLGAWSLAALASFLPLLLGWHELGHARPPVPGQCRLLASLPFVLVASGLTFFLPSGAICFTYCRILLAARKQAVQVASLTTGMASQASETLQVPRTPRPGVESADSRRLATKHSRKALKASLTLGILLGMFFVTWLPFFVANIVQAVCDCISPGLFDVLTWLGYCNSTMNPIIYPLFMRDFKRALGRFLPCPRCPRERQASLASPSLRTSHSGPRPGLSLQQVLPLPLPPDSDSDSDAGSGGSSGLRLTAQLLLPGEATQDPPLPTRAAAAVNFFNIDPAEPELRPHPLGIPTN
Test: Binding with serotonin receptor 5HT6 ([3H]-LSD radioligand, HEK-293 cell membranes)
Details: [3H]-LSD 2.7 nM, HEK-293 membranes; for inhibition at 0.01 µM: 10 nM compound; for inhibition at 0.01 µM / inhibition at 0.1 µM: 60 min, 37° C.; for inhibition at 0.1 µM: 100 nM compound; for Ki: non-linear regression EBDA/LIGAND
Experimental: Biological Assays Binding with Serotonin Receptor 5HT6
Cell membranes of HEK-293 cells expressing the 5HT6 human recombinant receptor were supplied by Receptor Biology. In said membranes the receptor concentration is 2.18 pmol/mg protein and the protein concentration is 9.17 mg/ml. The experimental protocol follows the method of B. L. Roth et al. [B. L. Roth, S. C. Craigo, M. S. Choudhary, A. Uluer, F. J. Monsma, Y. Shen, H. Y. Meltzer, D. R. Sibley: Binding of Typical and Atypical Antipsychotic Agents to 5-Hydroxytryptamine-6 and Hydroxytriptamine-7 Receptors. The Journal of Pharmacology and Experimental Therapeutics, 1994, 268, 1403] with slight changes. The commercial membrane is diluted (1:40 dilution) with the binding buffer: 50 mM Tris-HCl, 10 mM MgCl2, 0.5 mM EDTA (pH 7.4). The radioligand used is [^3H]-LSD at a concentration of 2.7 nM with a final volume of 200 μl. incubation is initiated by adding 100 μl of membrane suspension, (≈22.9 μg membrane protein), and is prolonged for 60 minutes at a temperature of 37° C. The incubation is ended by fast filtration in a Brandel Cell Harvester through fiber glass filters made by Schleicher & Schuell GF 3362 pretreated with a solution of polyethylenimine at 0.5%. The filters are washed three times with three milliliters of buffer Tris-HCl 50 mM pH 7.4. The filters are transferred to flasks and 5 ml of Ecoscint H liquid scintillation cocktail are added to each flask. The flasks are allowed to reach equilibrium for several hours before counting with a Wallac Winspectral 1414 scintillation counter. Non-specific binding is determined in the presence of 100 μM of serotonin. Tests were made in triplicate. The inhibition constants (Ki, nM) were calculated by non-linear regression analysis using the program EBDA/LIGAND [Munson and Rodbard, Analytical Biochemistry, 1980, 107, 220].

Row | Compound | inhibition at 0.01 µM | inhibition at 0.1 µM | Ki
1 | CNCCc1c[nH]c2ccc(NS(=O)(=O)c3c(Cl)nc4sccn34)cc12 [Example 3, 6-Chloro-imidazo[2,1-b]thiazole-5-sulfonic acid [3-(2-methylamino-ethyl)-1H-indol-5-yl]-amide] | 47.3% | 71.8% | 4.7 nM and 3.2 nM
2 | NCCc1c[nH]c2ccc(NS(=O)(=O)c3c(Cl)nc4sccn34)cc12 [Example 6, 6-Chloro-imidazo[2,1-b]thiazole-5-sulfonic acid [3-(2-amino-ethyl)-1H-indol-5-yl]-amide] | 75.7% | 92.3% | 3.6 ± 1.4 nM
3 | CCNCCc1c[nH]c2ccc(NS(=O)(=O)c3c(Cl)nc4sccn34)cc12 [Example 4, 6-Chloro-imidazo[2,1-b]thiazole-5-sulfonic acid [3-(2-ethylamino-ethyl)-1H-indol-5-yl]-amide] | 61.8% | 81.7% | 6.4 ± 1 nM
4 | CNCCc1c[nH]c2ccc(NS(=O)(=O)c3sc4ccc(Cl)cc4c3C)cc12 [Example 2, 5-Chloro-3-methyl-benzo[b]thiophene-2-sulfonic acid [3-(2-methylamino-ethyl)-1H-indol-5-yl]-amide] | 62.5% | 80.3% | 2 nM
5 | Cc1c(S(=O)(=O)Nc2ccc3[nH]cc(CCN)c3c2)sc2ccc(Cl)cc12 [Example 5, 5-Chloro-3-methyl-benzo[b]thiophene-2-sulfonic acid [3-(2-amino-ethyl)-1H-indol-5-yl]-amide] | 63.5% | 85% | 11.7 nM
6 | CCNCCc1c[nH]c2ccc(NS(=O)(=O)c3sc4ccc(Cl)cc4c3C)cc12 [Example 1, 5-Chloro-3-methyl-benzo[b]thiophene-2-sulfonic acid [3-(2-ethylamino-ethyl)-1H-indol-5-yl]-amide] | 82.7% | 91.4% | 0.67 nM
